Data reported in US10870876B2, “Method for detecting a presence or absence of at least one first zone of inhibition” (BIOMÉRIEUX, priority 2015, dated 2020).

Test system: Escherichia coli ATCC 25922
Assay: Etest strip MIC, sample deposited by smearing with a filtration sampling tool along two axes
Format: cell-based
Conditions: smear deposition, incubated at 35° C., shadowgraphy images from 3 h 30; visual examination at 6 h 30 confirms
Text: A third method of implementation of the invention is illustrated by FIGS. 11a, 11b and 12. In this method, the sample is deposited by smearing on the surface of the culture medium (e.g. agar in a Petri dish with a diameter greater than or equal to 9 cm) by means of a sampling tool such as described in the international application published under the number WO2012/083150. Such an integrated device makes it possible to carry out one or more filtration steps and also to transfer a liquid sample. Said device comprises a tubular portion, one of the ends of which is covered with a filtration material such as a membrane, said filtration material being arranged outside this end and covering it totally. The other end of the tubular portion is able to be connected to a suction or dispensing means such as a vacuum pump. The benefit of using such a tool especially being able to estimate the MIC of a sample originating from a positive blood culture bottle, that is to say one which has a result confirming the presence of microorganisms after a given incubation time. For this purpose, the sample may especially be prepared by taking off a volume of the positive blood culture, carrying out a step of lysis, for example chemical lysis, of the blood cells of the volume taken off, then by carrying out filtration of the lysed volume by suction at the surface of a membrane. […]

gentamicin
minimum inhibitory concentration: 1.5 µg/mL
